PMC8645421 (Computational and Structural Biotechnology Journal, 2021)
Blank lines part the entries; values can stand above or below the molecule they belong to.

Assays:
Settings in all cases: read-out: Km (mM) ^3; 50 mM Britton and Robinson buffer, pH 7.0, 30 °C
T0199 = experiment: pNP release at […] nm; format: biochemical, metagenome
T0207 = experiment: pNP release at […] nm; format: biochemical, Osedax
T0204 = experiment: pNP release at […] nm; format: biochemical, metagenome
T0215 [1] = experiment: pNP release at […] nm; format: biochemical, uncultured Marinifilaceae bacterium
T0201 = experiment: pNP release at […] nm; format: biochemical, metagenome
T0191 [2] = experiment: HPAEC-PAD; format: biochemical, uncultured Marinifilaceae bacterium
T0193 [3] = experiment: HPAEC-PAD; format: biochemical, uncultured Flavobacteriaceae bacterium
T0218 = experiment: pNP release at […] nm; format: biochemical, metagenome
T0217 = experiment: pNP release at […] nm; format: biochemical, metagenome
T0220 = experiment: pNP release at […] nm; format: biochemical, metagenome
T0216 = experiment: pNP release at […] nm; format: biochemical, uncultured Flavobacteriaceae bacterium
T0193 [4] = experiment: pNP release at […] nm; format: biochemical, uncultured Flavobacteriaceae bacterium
T0191 [5] = experiment: pNP release at […] nm; format: biochemical, uncultured Marinifilaceae bacterium
T0215 [6] = experiment: HPAEC-PAD; format: biochemical, uncultured Marinifilaceae bacterium

- Km (T0199): 1.08 ± 0.15 mM
Structure (SMILES): C[C@@H]1O[C@@H](Oc2ccc([N+](=O)[O-])cc2)[C@H](O)[C@H](O)[C@H]1O [pNP-αRham]

- Km (T0207): 0.199 ± 0.032 mM
Structure (SMILES): O=[N+]([O-])c1ccc(O[C@@H]2O[C@H](CO)[C@H](O)[C@H](O)[C@H]2O)cc1 [pNP-βGal]

- Km (T0204): 0.127 ± 0.036 mM
Structure (SMILES): O=[N+]([O-])c1ccc(O[C@@H]2O[C@H](CO)[C@@H](O)[C@H](O)[C@@H]2O)cc1 [pNP-βMan]

Structure (SMILES): O=[N+]([O-])c1ccc(O[C@H]2O[C@H](CO)[C@H](O)[C@H](O)[C@H]2O)cc1 [pNP-αGal]
- Km (T0215 [1]): 0.062 ± 0.008 mM
- Km (T0201): 6.22 ± 0.93 mM

Structure (SMILES): CC(=O)N[C@H]1[C@H]([C@H](O)[C@H](O)CO)O[C@@](O[C@H]2[C@@H](O)[C@@H](CO)O[C@@H](O[C@H]3[C@H](O)[C@@H](O)C(O)O[C@@H]3CO)[C@@H]2O)(C(=O)O)C[C@@H]1O (stereo partly drawn) [3-Sialyllactose]
- Km (T0191 [2]): 0.031 ± 0.001 mM
- Km (T0193 [3]): 0.082 ± 0.06 mM

Structure (SMILES): CC(=O)N[C@H]1[C@H]([C@H](O)[C@H](O)CO)O[C@@](OC[C@H]2O[C@@H](O[C@H]3[C@H](O)[C@@H](O)C(O)O[C@@H]3CO)[C@H](O)[C@@H](O)[C@H]2O)(C(=O)O)C[C@@H]1O (stereo partly drawn) [6-Sialyllactose]
- Km (T0191 [2]): 0.053 ± 0.001 mM

- Km (T0218): 0.326 ± 0.037 mM
Structure (SMILES): CC(=O)N[C@H]1[C@H](Oc2ccc([N+](=O)[O-])cc2)O[C@H](CO)[C@H](O)[C@@H]1O [pNP-NAβGal]

Structure (SMILES): CC(=O)N[C@H]1[C@H](Oc2ccc([N+](=O)[O-])cc2)O[C@H](CO)[C@@H](O)[C@@H]1O [pNP-NAβGlu]
- Km (T0217): 0.028 ± 0.012 mM
- Km (T0218): 0.134 ± 0.015 mM
- Km (T0220): 0.042 ± 0.004 mM
- Km (T0216): 0.025 ± 0.006 mM

Structure (SMILES): CC(=O)N[C@H]1[C@H]([C@H](O)[C@H](O)CO)O[C@@](Oc2ccc([N+](=O)[O-])cc2)(C(=O)O)C[C@@H]1O [pNP-Neu5Ac]
- Km (T0193 [4]): 0.55 ± 0.17 mM
- Km (T0191 [5]): 0.18 ± 0.03 mM

Structure (SMILES): CCCCCCCCCCCCC/C=C/[C@@H](O)[C@@H](N)CO[C@@H]1O[C@H](CO)[C@@H](O[C@@H]2O[C@H](CO)[C@H](O[C@H]3O[C@H](CO)[C@H](O)[C@H](O)[C@H]3O)[C@H](O)[C@H]2O)[C@H](O)[C@H]1O [Globotriaosylsphingosine]
- Km (T0215 [6]): 0.058 ± 0.007 mM

- Km (T0207): 0.0118 ± 0.003 mM
Structure (SMILES): C[C@H]1O[C@@H](Oc2ccc([N+](=O)[O-])cc2)[C@H](O)[C@@H](O)[C@H]1O [pNP-β-Fuc]

Structure (SMILES): OC[C@H]1O[C@H](O[C@H]2[C@@H](O)[C@@H](CO)OC(O)[C@@H]2O)[C@H](O)[C@@H](O)[C@H]1O (stereo partly drawn) [Galactose-α-1,3-galactose]
- Km (T0215 [6]): 0.048 ± 0.009 mM
